# Source: patent US8119689B2, “Adjuvants on the basis of bisacyloxypropylcystene conjugates and derivatives and their uses in pharmaceutical compositions” (Helmholtz-Zentrum Fuer Infektionsforschung GmbH, priority 2005, dated 2012)
# Entries after “also recorded” stand apart in the source; their conditions may differ.
# Columns and labels:
# [1] = system: primary bone marrow-derived dendritic cells; experiment: In vitro stimulation of primary bone marrow-derived murine dendritic cells, surface markers by flow cytometry; assay type: cell-based, BALB/c mice; conditions: CD11c+-gated DC, 50 ng/ml, 16 or 40 h pre-treatment
# Experimental: FIG. 1: FIGS. 1A-1C show the results for In vitro studies using primary dendritic cells. Primary bone marrow-derived dendritic cell cultures were obtained from BALB/c mice by in vitro maturation of precursors using recombinant GM-CSF (5×10^4 U/ml). Mature dendritic cells were stimulated with 10 ng/ml of E. coli lypopolysaccharide (LPS) or 50 and 100 ng/ml of BPPcysGlyc4armPEG and BPPcysAda, respectively. Then, cells were double-labeled with antibodies specific for CD11c (dendritic cell marker) in combination with anti-CD40, anti-CD54, anti-CD80, anti-CD86, anti-MHC class 1, or anti-MHC class 11 antibodies. The expression of CD40, CD80, CD54, CD86, anti-MHC class 1, and MHC class 11 in CD11c-gated cells were analyzed by flow cytometry.
# Experimental protocol: primary bone marrow-derived dendritic cell cultures were obtained from BALB/c mice following in vitro maturation of precursors in the presence of recombinant GM-CSF (5×10^4 U/ml), according to established protocols. Mature dendritic cells were stimulated with 10 ng/ml of E. coli lypopolysaccharide (LPS) or 5 ng/ml of BPPcysGlyc4armPEG, after 12, 24 and/or 48 h stimulation cells were analyzed by flow cytometry to assess the expression of surface markers which are relevant for their antigen presentation capacity.
# In order to identify compounds which may have potential as adjuvants for in vivo applications in the vaccinology field, a first in vitro screening based on the used of primary cultures of bone marrow-derived dendritic cells was established. Dendritic cells were selected since they represent the most efficient antigen presenting cells and they play a key role by primary immune responses. In fact, they are the only cell type able to activate resting T cells initiating primary immune responses in vivo. Thus, dendritic cell cultures were treated with the tested moieties or LPS, which was used as a positive control. At different time intervals, samples were taken, stained with fluorescent-labeled antibodies specific for cellular markers critical for the antigen presenting capacities of dendritic cells, and analyzed by flow cytometry.
# To test the stimulatory capacity of BPPCysAda on maturation and activation of bone marrow-derived DC, immature DC's were stimulated in vitro with BPPCysAda. Surface markers on CD11c+-gated DC were investigated by FACS analysis after 16 or 40 h pre-treatment.
# spleen cells [2] = experiment: In vitro T cell-mediated proliferative response of spleen cells restimulated with the adjuvant ([3H]thymidine); assay type: cell-based, Balb/c mice; conditions: negative control 4armPEG or Ada
# Experimental: FIG. 2: FIG. 2 illustrates the cellular responses of restimulated spleen cells using different concentrations of BPPcysGlyc4armPEG or BPPcysAda as adjuvant. […] Results are expressed as counts per minute (A) and (C) and stimulation indexes (cpm samples/cpm in control non stimulated cells) (B).
# Experimental protocol: Spleens were removed and pooled for analysis of cellular immune responses. Cells were grown in RPMI 1640 supplemented with 10% fetal calf serum, 100 U/ml of penicillin, 50 μg/ml of streptomycin, 5×10^−5 M 2-mercaptoethanol and 1 mM L-glutamine (GIBCO BRL, Karlsruhe, Germany) and maintained at 37° C. in a humidified 5% CO2 atmosphere. Lymph node and spleen cell suspensions were adjusted to 5×10^6 cells/ml in complete medium, cells were seeded with 100 μl per well in a flat-bottomed 96-well microtiter plate (Nunc) and plates were incubated for 4 days in the presence of different concentrations of soluble β-gal. Each concentration was tested in quadruplicates. […] Cells were then harvested on paper filters (Filtermat A; Wallac, Freiburg, Germany) by using a cell harvester (Inotech, Wohlen, Switzerland), and the amount of incorporated [^3H]thymidine into the DNA of proliferating cells was determined by a […] (Wallac 1450, Micro-Trilux). The results are expressed as the arithmetic mean of [^3H]thymidine uptake in cpm. […]
# β-gal-specific IgA = experiment: β-gal-specific secretory IgA in lung and vaginal lavages of i.n. immunized mice; assay type: in vivo, BALB/c mice; conditions: i.n. immunization
# Experimental: Differences were statistically significant at p<0.05 (*) with respect to mice receiving antigen alone. One representative out of four independent experiments is shown. SEM is indicated by vertical lines.
# At day 38, mice were sacrificed and the final sampling was performed. Vaginal and lung ravages were obtained by flushing the organs with 1 ml of PBS supplemented with 50 mM EDTA, 0.1% BSA, and 10 mM PMSF. Lavages were then centrifuged to remove debris (10 min at 3000×g), and supernatant fluids were stored at −20° C. To determine the concentration of total IgA present in the lung and vaginal ravages, serial dilutions of the corresponding samples were incubated in microtiter plates that were previously coated with goat anti-mouse IgA (Sigma Chemie), as capture antibodies (100 μl/well). Serial dilutions of purified mouse IgA (Sigma Chemie) were used to generate a standard curve.
# spleen cells [3] = experiment: Cytokines secreted by in vitro re-stimulated spleen cells of immunized mice (cytometric bead array); assay type: in vivo
# Experimental: Cytokines secreted by in vitro re-stimulated spleen cells were determined in immunized mice by CBA. Results are expressed as cytokine concentration ratios (IL-10 the most prominent detected cytokine) (B) and (D) and the stimulation index (A) and (C).
# Cytometric Bead Array: Culture supernatants from proliferating cells were collected on days 2 and 4, and stored at −70° C. Determinations of IFN-γ, TNFα, IL-2, IL-4, IL-5, IL-6, IL-10 and IL-12 were performed by cytometric bead array analysis using the commercial kit from BD, according to the manufacturer's instructions. A standard curve was generated for each cytokine by using the corresponding recombinant murine cytokines (Pharmingen). Probes were incubated at room temperature for additional 2 h. The probes were then analyzed by flow cytometry as described by the protocol of BD.
# To characterize the type of Th response stimulated following immunization, the content of IFN-γ, IL-2, IL-4, IL-5, IL-6, IL-10, IL-12 and TNFα was measured in supernatants from in vitro re-stimulated spleen cells (FIG. 7). […] In fact, the strong stimulation of IL-10 secretion is congruent with the role played by this cytokine in the inhibition of cytokine synthesis by Th1 cells, the enhancement of B cells proliferation and the stimulation of IgA production.
# CD8+ T cells = experiment: IFNγ-producing CD8+ T cells after stimulating splenocytes with MHC cl. I restricted β-Gal or OVA peptides; assay type: in vivo; conditions: vs β-Gal or OVA alone-treated groups; intranasal, subcutaneous or intramuscular route (not shown)
# Experimental: To assess the epitope-specific cellular immune response induced by the co-administration of BPPCysAda via intranasal, subcutaneous or intramuscular route, IFNγ-producing CD8+ T cells were analyzed after stimulating splenocytes with the MHC cl. I restricted β-Gal (TPHPARIGL) or OVA ([…]) peptides.
# [4] = supernatants of in vitro re-stimulated spleen cells
compound,measurement,setting,value
"CCCCCCCCCCCCCCCC(=O)OCC(CSC[C@H](N)C(=O)N[C@H]1[C@@H](O)[C@H](n2cnc3c(N)ncnc32)O[C@@H]1CO)OC(=O)CCCCCCCCCCCCCCC (single isomer, unassigned) [BPPcysAda, S-[2,3-bis(palmitoyloxy)-(2S or 2R)-propyl]-L-cysteinylcarboxy-3′Amino-3′-deoxyadenosine]",expression of MHC class I and II molecules,[1],increased expression
same,expression of the adhesion molecule ICAM-1 (CD54),[1],enhanced expression
same,expression of the co-stimulatory molecule CD86,[1],up-regulated
same,proliferative response of restimulated spleen cells (stimulation index),spleen cells [2],efficient proliferative response
same,β-gal-specific IgA in vaginal lavages,β-gal-specific IgA; day 38,significantly higher levels
same,β-gal-specific IgA in lung lavages (BAL),"β-gal-specific IgA; day 38, vs antigen alone",significantly higher levels
same,IL-4 levels,"spleen cells [3]; all BPPcysAda co-administered groups, intranasal",induced
same,type of immune response induced,spleen cells [3]; mucosal and parenteral co-administration,Th2 dominated immune response
same,IFNγ secretion,spleen cells [3]; [4],weaker increase; also recorded: minor secretion
same,IL-2 secretion,spleen cells [3]; [4],induced; also recorded: weaker increase; also recorded: minor secretion
same,IL-6 secretion,spleen cells [3]; [4],weaker increase
same,IL-10 levels,spleen cells [3]; [4],significantly increased
same,TNFα secretion,spleen cells [3]; [4],weaker increase
same,number of IFNγ-secreting CD8+ T cells,CD8+ T cells,significantly decreased
